Reference: article PMC11876772 (Materials Today Bio, 2025)

Tests used:
[1] = in vitro; settings: chicken
[2] = tested on: TLR7/MyD88/NF-кB and MAPK pathways in BMDCs; type: cell-based, ICR mice

CC(C)Cn1cnc2c(N)nc3ccccc3c21 [IMQ, imiquimod]
hemolysis [1]: ~37.5%
protein expression of TLR7 and MyD88 compared with un-treated BMDCs [2]: induced the high protein expression of TLR7 (P < 0.001) and MyD88 (P < 0.001)
